For 24 compounds, TGI results are on record in PubChem BioAssay (NCI).

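1) Cells in 96-well plates. 2) Compound, 48 h, 5 concentrations. 3) Linear interpolation between surrounding doses. 4) Unreached endpoint = highest concentration. TGI marks complete inhibition of growth.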

Holding throughout (assay): NCI tumour cell line growth inhibition, 48 h
For assay [1], the system named is 786-0 renal.
Assay [2] relates to NCI-H23 lung.
Assay [3] has as its system HOP-92 NSCLC.
Assay [4] concerns HCT-15 colon.
Assay [5] concerns M14 melanoma.
Assay [6] deals with SN12C renal.
In assay [7] the test system is SNB-19 CNS.
In assay [8] the test system is HL-60(TB) leukemia.
For assay [9], the system named is MCF7 breast.
Assay [10] deals with NCI/ADR-RES ovarian.

Regarding `CC(=O)OC1CC2C(C)(C)OC(=O)CC(OC(C)=O)[C@]2(C)C2CCC3(C)C(=CCC3[C@H]3COC(=O)C3)[C@]12C` (some centres not stated), the TGI in assay [1], in [2], in assay [3], in assay [4], in assay [5] and in [6] was greater than 100 µM in each case. The TGI in assay [7] and in assay [8] was greater than 100 µM in each case.
For the compound `O=C(CSc1nnc(Cc2ccccc2)o1)Nc1ccc([N+](=O)[O-])cc1`, the TGI in assay [1], in assay [2], in assay [4], in [5], in [6] and in assay [8] was greater than 100 µM each time.
Turning to `O=C(Cc1ccccc1)NN1C(=O)/C(=C\c2cccc(O)c2)SC1=Nc1ccccc1`, the TGI in assay [1], in assay [2], in assay [4], in assay [5], in [6] and in assay [7] was greater than 100 µM throughout. For the same compound, the TGI in assay [9] and in assay [10] was greater than 100 µM each time.
Take `CN(C)c1ccc(C2SCC(=O)N2NS(=O)(=O)c2cccc(C(=O)O)c2)cc1` (configuration not stated): the TGI in assay [1] is 31 µM; in assay [2], greater than 100 µM; in assay [3] it was greater than 100 µM; in assay [4] it was greater than 100 µM; in assay [5], greater than 100 µM; in assay [6], greater than 100 µM. Further, the TGI in [7], in assay [9] and in [8] was greater than 100 µM throughout.
As to `NC(=O)NNC(=O)c1nc[nH]c1[N+](=O)[O-]`, the TGI in assay [1], in [2], in assay [4], in assay [5], in assay [6] and in assay [9] was greater than 100 µM in each case. In [10], this compound showed a TGI greater than 100 µM.
As for `O=C1OC2(OC2c2ccccc2)c2ccccc21` (configuration not stated), the TGI in assay [1], in assay [2], in [3], in assay [4], in assay [5] and in assay [6] was greater than 100 µM throughout. The TGI in assay [7] and in assay [8] was greater than 100 µM each time.
In the case of `CCCCCCCCCCCCCCCCCC(=O)O[C@H](COC(=O)CCCCCCCCCCC)COC(=O)CCCCCCCCCCCCCCC`, the TGI in assay [1], in assay [2], in assay [3], in assay [4], in [5] and in assay [6] was greater than 100 µM in each case. The TGI in assay [7] and in assay [8] was greater than 100 µM each time.
As for `CC1=COC(C)(C=C(C#N)C#N)CC1` (configuration not stated), the TGI in [1], in assay [2], in assay [5], in assay [6], in [7] and in assay [9] was greater than 100 µM in each case. Further, the values for the TGI in assay [10] and in [8] were greater than 100 µM and 50.1 µM, respectively.
For the compound `CCCC(C)NC1=C(NC(C)=O)C(=O)c2ccccc2C1=O` (configuration not stated), the TGI in [1], in assay [2], in assay [3], in [4], in [5] and in assay [6] was greater than 100 µM each time. Further, the TGI in assay [7] and in [8] was greater than 100 µM each time.
Regarding `O=C(O)c1ccc(S(=O)(=O)c2ccccc2[N+](=O)[O-])cc1`, the TGI in assay [1], in [2], in [4], in assay [5], in assay [6] and in [7] was greater than 10 µM in each case. For the same compound, the TGI in assay [9], in [10] and in assay [8] was greater than 10 µM throughout.
Regarding `COC(=O)C1=C2SCc3cccc(c3)CSC3=C(C(=O)OC)SC(=C(S2)S1)S3`, the TGI in assay [1] was greater than 100 µM; in [5], greater than 100 µM; in [6], greater than 100 µM; in [7], greater than 100 µM; in assay [9], greater than 100 µM; in [8], 80.9 µM.
Take `O=C(Cc1ccccc1)NN1C(=O)C(Cl)C1c1ccc(O)cc1` (configuration not stated): the TGI in assay [1], in assay [2], in [4], in [5], in assay [6] and in assay [7] was greater than 100 µM in each case. In [8], this compound registered a TGI greater than 100 µM.
As to `COc1cc(Nc2c3ccccc3nc3ccccc23)ccc1NS(C)(=O)=O`, the TGI in assay [5] came out at 13.5 µM; in [6] it was 9.32 µM; in assay [7], 48 µM; in assay [8], 30.1 µM.
As for `Cc1cc(C2(O)C=C(C(C)(C)C)C(=O)C(C(C)(C)C)=C2)c(C)cc1C1(O)C=C(C(C)(C)C)C(=O)C(C(C)(C)C)=C1`, the TGI in assay [1], in assay [2], in assay [4], in assay [5], in assay [6] and in assay [7] was greater than 100 µM in each case. For the same compound, the TGI in assay [9], in assay [10] and in assay [8] was greater than 100 µM each time.
For `O=C(O)CC[N+]1=CCC(c2ccccc2)(c2ccccc2)O1`, the TGI in [1], in assay [2], in assay [3], in assay [4], in assay [5] and in assay [6] was greater than 100 µM each time. Moreover, the TGI in assay [7] and in assay [9] was greater than 100 µM in each case.
In the case of `CCCCCC(=O)NC(=S)Nc1nn[nH]n1`, the TGI in assay [1], in [2], in [3], in assay [4], in [5] and in assay [6] was greater than 100 µM throughout. The TGI in [7], in assay [9] and in assay [8] was greater than 100 µM each time.
Take `O=C1c2ccccc2CCCCCCCCCCC12OCCCO2`: the TGI in assay [1] is greater than 100 µM; in assay [2], greater than 100 µM; in assay [4], 92.3 µM; in assay [5], greater than 100 µM; in assay [6], greater than 100 µM; in assay [7], 77.5 µM. The same compound came in with a TGI in [8] of 40.1 µM.
`C[C@H](N)C(=O)Nc1ccc(-c2nc3ccccc3s2)cc1`: the TGI in assay [1] is 29.1 µM; in [2], greater than 100 µM; in [3], 95.3 µM; in [4], 36.2 µM; in assay [5], 24.1 µM; in [6] it was 56 µM. Also, the TGI in [7] is 49.6 µM; in [10] it was greater than 100 µM.
Turning to `NCCN=C(Nc1ccccc1)Nc1ccccc1`, the TGI in [1], in assay [2], in [4], in [5], in assay [6] and in assay [7] was greater than 100 µM throughout. In addition, the TGI in assay [9], in [10] and in assay [8] was greater than 100 µM each time.
Regarding `O=C1c2ccccc2C(=O)N1Cc1ccccc1-c1c2nc(c(-c3ccccc3CN3C(=O)c4ccccc4C3=O)c3ccc([nH]3)c(-c3ccccc3CN3C(=O)c4ccccc4C3=O)c3nc(c(-c4ccccc4CN4C(=O)c5ccccc5C4=O)c4ccc1[nH]4)C=C3)C=C2`, the TGI in assay [1], in assay [2], in [3], in assay [4], in assay [5] and in assay [6] was greater than 100 µM in each case. In assay [8], this compound registered a TGI greater than 100 µM.
With `C1CCC2C(C1)CCCC2NC1=NCCO1` (configuration not stated), the TGI in assay [1], in assay [2], in assay [4], in assay [5], in assay [6] and in assay [7] was greater than 100 µM each time. The TGI in [9], in assay [10] and in [8] was greater than 100 µM in each case.
Turning to `COc1ccc(O)cc1`, the TGI in assay [1] is greater than 100 µM; in assay [2] it was greater than 100 µM; in assay [3] it was greater than 100 µM; in assay [4] it was 98.4 µM; in [5] it was greater than 100 µM; in assay [6], greater than 100 µM. In addition, the TGI in assay [7] and in [8] was greater than 100 µM in each case.
On to `NC1=NS(=O)(=O)Nc2nc(-c3ccc([N+](=O)[O-])cc3)[nH]c21`, for which the TGI in assay [1], in [2], in [3], in assay [4], in assay [5] and in assay [6] was greater than 100 µM in each case. Further, the TGI in assay [7] and in assay [8] was greater than 100 µM each time.
`C/C=C/C(O)P1(=O)N(Cc2ccccc2)[C@@H]2CCCC[C@H]2N1Cc1ccccc1` (some centres not stated): the TGI in assay [1], in assay [2], in assay [4], in [5], in assay [6] and in assay [7] was greater than 25 µM in each case. The TGI in assay [9], in [10] and in assay [8] was greater than 25 µM throughout.
